Where two headings read alike, the source gives them in different places.

Data on six compounds can be found in patent US8470787B2, “Hydrates of erythromycin salts, preparation and use thereof” (priority 2008, dated 2013).

Series [1] can be described thus: accelerated stability test (sealed vial, 30° C., HPLC content and related substances). The series is classed as physicochemical. As for the experimental part: The hydrates of erythromycin salts according to the present invention can be stably stored. A sample of the above hydrates was sealed in a vial, and an accelerated stability test was conducted at 30° C. and changes of the content and related substances were measured by a HPLC method (C18 reverse phase column, 0.01M KH2PO4-acetonitrile (60:40) as the mobile phase, detective wavelength: 215 nm, column temperature: 35° C., flow rate: 1.0 ml/min) (upon different hydrates of erythromycin salts, such as crystalline hydrates of erythromycin thiocyanate, the pH of the mobile phase can be adjusted and KH2PO4 can be changed into NaH2PO4, the detective wavelength can be changed into 210 nm, and the column temperature can be set at 35-55° C., such as 50° C. for analysis and measurement). […] As compared to the anhydrous of erythromycin salt, the hydrates of erythromycin salts according to the present invention have a lower hygroscopicity, i.e., has a better stability of hygroscopicity, which facilitates the package and storage thereof, or is a more advantageously stable form for storage relative to the anhydrous.

Series [2] is described as follows: hygroscopic test according to China Pharmacopeia CP2005. As to conditions: 25° C. The series is classed as physicochemical.
In another series the test system is Streptococcus viridan. The series is described as follows: antibacterial activity, tube double dilution method, clinically obtained bacteria. As to conditions: 23 strains. Type of series: cell-based.
For a further series, the system named is Pneumococcus. The description is as above. Type of series: cell-based. As to conditions: for MIC50 / MIC90: 18 strains; for MIC: range over 18 strains. As for the experimental part: (§1) The antibacterial activities of the hydrates of erythromycin salts are determined by culturing clinically obtained bacteria and measuring in accordance with pharmacological test methods (the tube double dilution method), and the results are shown in the following tables 9, 10, 11 and 12.

The test system of a further series is Propionibacterium. Described as above. Type of series: cell-based. The following applies: for MIC50 / MIC90: 18 strains; for MIC: range over 18 strains. As for the experimental part: as §1
The test system of another series is Bacillus fragilis. Described as above. Type of series: cell-based. The following applies: for MIC50 / MIC90: 15 strains; for MIC: range over 15 strains. As for the experimental part: as §1
In another series the test system is Neisseria gonorrhoeae. Described as above. The series is classed as cell-based. As to conditions: for MIC50 / MIC90: 16 strains; for MIC: range over 16 strains. As for the experimental part: as §1
The subject of another series is Bacillus influenzae. The description is as above. The series is classed as cell-based. The following applies: for MIC50 / MIC90: 17 strains; for MIC: range over 17 strains. Here is the method:
as §1

The test system of series [3] is Streptococcus hemolyticus. The series is described as above. The series is classed as cell-based. The following applies: for MIC50 / MIC90: 16 strains; for MIC: range over 16 strains. Here is the method: as §1
The test system of the next series is Staphylococcus aureus. The series is described as above. The series is classed as cell-based. As to conditions: 26 strains.
In another series the test system is Escherichia coli. Described as above. As to conditions: 21 strains. The series is classed as cell-based.
In series [4] the test system is Staphylococcus epidermidis. Described as above. Type of series: cell-based. As to conditions: 21 strains.
The next series relates to Anaerobe. The series is described as above. Type of series: cell-based. As to conditions: for MIC50 / MIC90: 16 strains; for MIC: range over 16 strains. As for the experimental part:
as §1

As for “erythromycin thiocyanate hemitri(1.5)hydrate”, the “Assay (%)” value is recorded as 99.9% in series [1] (month 0); 100.3% in [1] (month 1); 100.5% in series [1] (month 2); 100.1% in series [1] (month 3); 100.2% in series [1] (month 6). The Form entry in series [1] (month 0), in series [1] (month 1), in series [1] (month 2), in series [1] (month 3) and in [1] (month 6) was “off-white powder” throughout. For the same compound, the “Hygroscopic weight gain %, relative to 0 h” value in series [2] (RH 75%, 48 h) amounted to 3.12%.

In the case of `CC[C@H]1OC(=O)[C@H](C)[C@@H](O[C@H]2C[C@@](C)(OC)[C@@H](O)[C@H](C)O2)[C@H](C)[C@@H](O[C@@H]2O[C@H](C)C[C@H](N(C)C)[C@H]2O)[C@](C)(O)C[C@@H](C)C(=O)[C@H](C)[C@@H](O)[C@]1(C)O` [erythromycin lactobionate trihydrate], the “Assay (%)” value in series [1] (month 0) is listed as 99.9%; in series [1] (month 1) it was 100.2%; in series [1] (month 2) it was 99.8%; in series [1] (month 3), 100.1%; in series [1] (month 6), 99.9%. In addition, the Form entry in series [1] (month 0), in series [1] (month 1), in series [1] (month 2), in series [1] (month 3) and in [1] (month 6) was “off-white powder” each time. Further, the MIC50 in the series with Streptococcus viridan (Streptococcus, read-out: MIC50) is 0.06 mg/L; with Pneumococcus (read-out: MIC50) it was 0.06 mg/L; with Propionibacterium (Propionibacterium, read-out: MIC50) it was 0.06 mg/L; with Bacillus fragilis (Bacillus, read-out: MIC50), 4 mg/L; in the series on Neisseria gonorrhoeae (Neisseria gonorrhoeae, read-out: MIC50) it was 0.25 mg/L; in the series on Bacillus influenzae (Bacillus, read-out: MIC50), 4 mg/L. Besides, the MIC50 in [3] (Streptococcus pyogenes, read-out: MIC50) was 0.06 mg/L; in the series with Staphylococcus aureus (Staphylococcus aureus, read-out: MIC50) it was 0.12 mg/L; in the series on Escherichia coli (Escherichia coli, read-out: MIC50), 4 mg/L; in series [4] (Staphylococcus epidermidis, read-out: MIC50), 16 mg/L. In addition, the MIC90 with Streptococcus viridan (Streptococcus, read-out: MIC90) is 0.5 mg/L; with Pneumococcus (read-out: MIC90), 1 mg/L; in the series with Propionibacterium (Propionibacterium, read-out: MIC90), 0.12 mg/L; in the series on Bacillus fragilis (Bacillus, read-out: MIC90), 16 mg/L; with Neisseria gonorrhoeae (Neisseria gonorrhoeae, read-out: MIC90) it was 1 mg/L; in the series on Bacillus influenzae (Bacillus, read-out: MIC90), 8 mg/L. Further, the MIC90 in [3] (Streptococcus pyogenes, read-out: MIC90) was 32 mg/L. Also, the MIC fell in the range of 0.03 to 0.5 mg/L in the series with Pneumococcus (read-out: MIC); 0.03 to 16 mg/L with Propionibacterium (Propionibacterium, read-out: MIC); 0.5 to 64 mg/L in the series on Bacillus fragilis (Bacillus, read-out: MIC); 0.06 to 2 mg/L in the series on Neisseria gonorrhoeae (Neisseria gonorrhoeae, read-out: MIC); 0.12 to 8 mg/L with Bacillus influenzae (Bacillus, read-out: MIC); 0.03 to 32 mg/L in series [3].

Take `CC[C@H]1OC(=O)[C@H](C)[C@@H](O[C@H]2C[C@@](C)(OC)[C@@H](O)[C@H](C)O2)[C@H](C)[C@@H](O[C@@H]2O[C@H](C)C[C@H](N(C)C)[C@H]2O)[C@](C)(O)C[C@@H](C)C(=O)[C@H](C)[C@@H](O)[C@]1(C)O.O=C(O)[C@H](O)[C@@H](O)[C@H](O[C@@H]1O[C@H](CO)[C@H](O)[C@H](O)[C@H]1O)[C@H](O)CO` [Erythromycin lactobionate anhydrous, reference compound]: the “hygroscopicity (in words), compared with the anhydrous” value in [2] (relative humidity 75%) is on record as “more hygroscopic”.

As to `CC[C@H]1OC(=O)[C@H](C)[C@@H](O[C@H]2C[C@@](C)(OC)[C@@H](O)[C@H](C)O2)[C@H](C)[C@@H](O[C@@H]2O[C@H](C)C[C@H](N(C)C)[C@H]2O)[C@](C)(O)C[C@@H](C)C(=O)[C@H](C)[C@@H](O)[C@]1(C)O.N#CS.O.O` [erythromycin thiocyanate dihydrate], the “Assay (%)” value in series [1] (month 0) worked out at 99.9%; in series [1] (month 1), 99.9%; in series [1] (month 2), 100.4%; in [1] (month 3), 100.2%; in [1] (month 6) it was 99.8%. The Form result in series [1] (month 0), in [1] (month 1), in series [1] (month 2), in [1] (month 3) and in series [1] (month 6) was “off-white powder” in each case. The MIC50 is reported as 0.06 mg/L with Streptococcus viridan; 0.06 mg/L in the series with Pneumococcus; 0.06 mg/L with Propionibacterium; 4 mg/L in the series with Bacillus fragilis; 0.25 mg/L against Neisseria gonorrhoeae; 4 mg/L in the series on Bacillus influenzae. Moreover, the MIC50 in the series with Anaerobe was 2 mg/L; in series [3] it was 0.06 mg/L; against Staphylococcus aureus, 0.12 mg/L; in the series with Escherichia coli, 4 mg/L; in series [4] it was 16 mg/L. Besides, the MIC90 in the series with Streptococcus viridan is reported as 0.5 mg/L; against Pneumococcus it was 1 mg/L; in the series on Propionibacterium, 0.12 mg/L; in the series on Bacillus fragilis, 16 mg/L; with Neisseria gonorrhoeae, 1 mg/L; with Bacillus influenzae, 8 mg/L. Besides, the MIC90 with Anaerobe is on record as 16 mg/L; in [3], 32 mg/L. The MIC lay within 0.03 to 0.5 mg/L in the series on Pneumococcus; 0.03 to 16 mg/L against Propionibacterium; 0.5 to 64 mg/L against Bacillus fragilis; 0.06 to 2 mg/L against Neisseria gonorrhoeae; 0.12 to 8 mg/L against Bacillus influenzae; 0.06 to 64 mg/L against Anaerobe. For the same compound, the MIC in [3] lay within 0.03 to 32 mg/L.

For the compound `CC[C@H]1OC(=O)[C@H](C)[C@@H](O[C@H]2C[C@@](C)(OC)[C@@H](O)[C@H](C)O2)[C@H](C)[C@@H](O[C@@H]2O[C@H](C)C[C@H](N(C)C)[C@H]2O)[C@](C)(O)C[C@@H](C)C(=O)[C@H](C)[C@@H](O)[C@]1(C)O.N#CS.O.O.O` [erythromycin thiocyanate trihydrate], the “Assay (%)” value in series [1] (month 0) amounted to 99.8%; in series [1] (month 1), 99.9%; in series [1] (month 2), 100.6%; in [1] (month 3), 100.3%; in series [1] (month 6) it was 100.1%. In addition, the Form entry in [1] (month 0), in series [1] (month 1), in [1] (month 2), in series [1] (month 3) and in [1] (month 6) was “off-white powder” each time.

On to `CC[C@H]1OC(=O)[C@H](C)[C@@H](O[C@H]2C[C@@](C)(OC)[C@@H](O)[C@H](C)O2)[C@H](C)[C@@H](O[C@@H]2O[C@H](C)C[C@H](N(C)C)[C@H]2O)[C@](C)(O)C[C@@H](C)C(=O)[C@H](C)[C@@H](O)[C@]1(C)O.O.O.O.O.O.O.O=C(O)[C@H](O)[C@@H](O)[C@H](O[C@@H]1O[C@H](CO)[C@H](O)[C@H](O)[C@H]1O)[C@H](O)CO` [erythromycin lactobionate hexahydrate], for which the “Assay (%)” value stood at 99.7% in series [1] (month 0); 99.6% in series [1] (month 1); 100.2% in series [1] (month 2); 99.8% in series [1] (month 3); 99.6% in [1] (month 6). Also, the Form result in [1] (month 0), in series [1] (month 1), in series [1] (month 2), in [1] (month 3) and in series [1] (month 6) was “off-white powder” each time. For the same compound, the MIC50 against Streptococcus viridan is on record as 0.06 mg/L; in the series on Pneumococcus it was 0.06 mg/L; in the series on Propionibacterium it was 0.06 mg/L; in the series on Bacillus fragilis it was 4 mg/L; against Neisseria gonorrhoeae, 0.25 mg/L; against Bacillus influenzae, 4 mg/L. The MIC50 with Anaerobe came out at 2 mg/L; in series [3], 0.06 mg/L; with Staphylococcus aureus it was 0.12 mg/L; in the series with Escherichia coli, 4 mg/L; in series [4], 16 mg/L. The MIC90 in the series on Streptococcus viridan was found to be 0.5 mg/L; with Pneumococcus, 1 mg/L; against Propionibacterium it was 0.12 mg/L; in the series with Bacillus fragilis, 16 mg/L; in the series with Neisseria gonorrhoeae, 1 mg/L; with Bacillus influenzae it was 8 mg/L. Besides, the MIC90 came to 16 mg/L in the series on Anaerobe and 32 mg/L in series [3]. Further, the MIC in the series with Pneumococcus fell in the range of 0.03 to 0.5 mg/L; with Propionibacterium it was 0.03 to 16 mg/L; in the series with Bacillus fragilis, 0.5 to 64 mg/L; against Neisseria gonorrhoeae it was 0.06 to 2 mg/L; with Bacillus influenzae, 0.12 to 8 mg/L; against Anaerobe, 0.06 to 64 mg/L. The compound also showed an MIC in [3] of 0.03 to 32 mg/L.
